{"source": "patent US6953789B2", "about": "“Thiol compounds, their production and use” (Takeda Chemical Industries, Ltd., priority 1998, dated 2005)", "data": [{"molecular_target": "T1, recombinant human MMP-13 (Homo sapiens, UniProt P45452)", "T1 construct": "made in house; host or cells: baculovirus (pBlueBac4 / Bac-N-Blue; virus made in Sf9), expressed in High-Five insect cells; culture supernatant used", "assay": "Assay of MMP-13 inhibiting activity (fluorogenic peptide substrate)", "format": "biochemical", "conditions": "Table 1; 37° C., 2 hours", "excerpt": "(§1) Based on the sequence described in the literature by Freije, J. M. et al (Journal of Biological Chemistry, 269: 16766-16773, 1994) and using a PCR method known per se, a human MMP-13 cDNA was obtained.\n(§2) A pBlueBac4 (Invitrogen) and a Baculovirus vector Bac-N-Blue (Invitrogen) to each of which the human MMP-13 cDNA obtained above was integrated were co-transfected to an Sf9 cell to obtain a MMP-13-expressing recombinant virus.\n(§3) The recombinant virus thus obtained was infected to a High-Five cell (Invitrogen), and the culture supernatant after three days was employed as an enzyme solution. Experiment 2 Assay of MMP-13 inhibiting activity\n(§4) 75 μl of a sample containing the recombinant human MMP-13, 200 mM sodium chloride, 20 mM calcium chloride, 0.1% Brij 35, 1 mM 2-mercaptoethanol, 200 mM tris-HCl buffer solution (pH7.5) and a test substance at various concentrations was treated with 25 μl of 40 μM MOCAc-Pro-Leu-Gly-Leu-A2pr(DNP)-Ala-Arg-NH2 (PEPTIDE KENKYUSHO) to initiate a reaction and kept at 37° C. for 2 hours, and then 100 μl of 500 mM sodium acetate-HCl buffer solution (pH3.0) was added to terminate the reaction.\n(§5) The level of liberated MOCAc-Pro-Leu-Gly was determined using a fluorophotometer (MTP-32/F2: CORONA DENKI) at the excitation wavelength of 330 nm and the fluorescent wavelength of 405 nm. The fluorescent level of the reaction in the absence of a test substance was regarded as 100%, and the concentration of each test substance required for achieving 50% inhibition was indicated as IC50.", "units": {"IC50": "nM"}, "values": [{"molecule": "3-Mercapto-1-(4-phenoxybenzylpyrrolidine-2,5-dione [Example 1]", "IC50": 5}, {"molecule": "CCSC1CC(=O)N(Cc2ccc(Oc3ccccc3)cc2)C1=O", "note": "(stereo not drawn) [Example 2, 3-Ethylthio-1-(4-phenoxybenzyl)pyrrolidine-2,5-dione]", "IC50": "> 10000"}, {"molecule": "CCOC(=O)CCSC1CC(=O)N(Cc2ccc(Oc3ccccc3)cc2)C1=O", "note": "(stereo not drawn) [Example 3, 3-[2-(Ethoxycarbonyl)ethylthio]-1-(4-phenoxybenzyl)pyrrolidine-2,5-dione]", "IC50": "> 10000"}, {"molecule": "O=C1CC(SCc2ccccc2)C(=O)N1Cc1ccc(Oc2ccccc2)cc1", "note": "(stereo not drawn) [Example 4, 3-Benzylthio-1-(4-phenoxybenzyl)pyrrolidine-2,5-dione]", "IC50": "> 10000"}, {"molecule": "CC(=O)SC1CC(=O)N(Cc2ccc(Oc3ccccc3)cc2)C1=O", "note": "(stereo not drawn) [Example 5, 3-Acetylthio-1-(4-phenoxybenzyl)pyrrolidine-2,5-dione]", "IC50": 30}, {"molecule": "O=C(SC1CC(=O)N(Cc2ccc(Oc3ccccc3)cc2)C1=O)c1ccccc1", "note": "(stereo not drawn) [Example 6, 3-Benzoylthio-1-(4-phenoxybenzyl)pyrrolidine-2,5-dione]", "IC50": 2}, {"molecule": "CC(=O)SCC1CC(=O)N(Cc2ccc(Oc3ccccc3)cc2)C1=O", "note": "(stereo not drawn) [Example 10, 3-Acethylmethyl-1-(4-phenoxybenzyl)pyrrolidine-2,5-dione]", "IC50": 400}, {"molecule": "O=C1CC(SSCC2CCCO2)C(=O)N1Cc1ccc(Oc2ccccc2)cc1", "note": "(stereo not drawn) [Example 11, 3-[(Tetrahydro-2-furanyl)methyldithio]-1-(4-phenoxybenzyl)pyrrolidine-2,5-dione]", "IC50": 100}]}, {"molecular_target": "T1, recombinant human MMP-13", "assay": "Assay of MMP-13 inhibiting activity (fluorogenic peptide substrate)", "format": "biochemical", "conditions": "Table 2; 37° C., 2 hours", "excerpt": "as §1, §2, §3, §4, §5", "units": {"IC50": "nM"}, "values": [{"molecule": "CC(=O)SC1C(=O)N(Cc2ccc(Oc3ccccc3)cc2)C(=O)C1C", "note": "(stereo not drawn) [Example 7, 3-Acetylthio-4-methyl-1-(4-phenoxybenzyl)pyrrolidine-2,5-dione]", "IC50": 50}, {"molecule": "CC1C(=O)N(Cc2ccc(Oc3ccccc3)cc2)C(=O)C1S", "note": "(stereo not drawn) [Example 8, 3-Mercapto-4-methyl-1-(4-phenoxybenzyl)pyrrolidine-2,5-dione]", "IC50": 20}, {"molecule": "COC(=O)CCSC1C(=O)N(Cc2ccc(Oc3ccccc3)cc2)C(=O)C1O", "note": "(stereo not drawn) [Example 9, 3-Hydroxy-4-[2-(methoxycarbonyl)ethylthio]-1-(4-phenoxybenzyl)pyrrolidine-2,5-dione]", "IC50": 1000}]}, {"molecular_target": "T1, recombinant human MMP-13", "assay": "Assay of MMP-13 inhibiting activity (fluorogenic peptide substrate)", "format": "biochemical", "conditions": "Table 3; 37° C., 2 hours", "excerpt": "as §1, §2, §3, §4, §5", "units": {"IC50": "nM"}, "values": [{"molecule": "CC(=O)SC1CC(=O)N(Cc2ccc(Oc3ccccc3)cc2)C1", "note": "(stereo not drawn) [Example 15, 4-Acetylthio-1-(4-phenoxybenzyl)pyrrolidin-2-one]", "IC50": 10}, {"molecule": "O=C(SC1CC(=O)N(Cc2ccc(Oc3ccccc3)cc2)C1)c1ccccc1", "note": "(stereo not drawn) [Example 16, 4-Benzoylthio-1-(4-phenoxybenzyl)pyrrolidin-2-one]", "IC50": 2}, {"molecule": "O=C1CC(S)CN1Cc1ccc(Oc2ccccc2)cc1", "note": "(stereo not drawn) [Example 17, 4-Mercapto-1-(4-phenoxybenzyl)pyrrolidin-2-one]", "IC50": 5}, {"molecule": "CC(C)(C)C(=O)OCSC1CC(=O)N(Cc2ccc(Oc3ccccc3)cc2)C1", "note": "(stereo not drawn) [Example 18, 4-Pivaloyloxymethylthio-1-(4-phenoxybenzyl)pyrrolidin-2-one]", "IC50": 30}, {"molecule": "CC(=O)S[C@H]1CC(=O)N(Cc2ccc(Oc3ccccc3)cc2)C1", "note": "[Example 21, (S)-4-Acetylthio-1-(4-phenoxybenzyl)pyrrolidin-2-one]", "IC50": 4000}, {"molecule": "O=C1C[C@H](S)CN1Cc1ccc(Oc2ccccc2)cc1", "note": "[Example 22, (S)-4-Mercapto-1-(4-phenoxybenzyl)pyrrolidin-2-one]", "IC50": 300}]}, {"molecular_target": "T1, recombinant human MMP-13", "assay": "Assay of MMP-13 inhibiting activity (fluorogenic peptide substrate)", "format": "biochemical", "conditions": "Table 5; 37° C., 2 hours", "excerpt": "as §1, §2, §3, §4, §5", "units": {"IC50": "nM"}, "values": [{"molecule": "CC(=O)S[C@@H]1CC(=O)N(Cc2ccc(Oc3ccccc3)cc2)[C@H]1COCc1ccccc1", "note": "(relative stereo) [Example 38, Trans-4-acetylthio-5-benzyloxymethyl-1-(4-phenoxybenzyl)pyrrolidin-2-one]", "IC50": 5}, {"molecule": "CC(=O)S[C@@H]1CC(=O)N(Cc2ccc(Oc3ccccc3)cc2)[C@H]1CC(C)C", "note": "(relative stereo) [Example 179, trans-4-Acetylthio-5-isobutyl-1-(4-phenoxybenzyl)pyrrolidin-2-one]", "IC50": 9}, {"molecule": "CC(C)C[C@H]1[C@H](S)CC(=O)N1Cc1ccc(Oc2ccccc2)cc1", "note": "(relative stereo) [Example 180, trans-5-Isobutyl-4-mercapto-1-(4-phenoxybenzyl)pyrrolidin-2-one]", "IC50": 20}, {"molecule": "CC(=O)S[C@@H]1CC(=O)N(Cc2ccc(Oc3ccccc3)cc2)[C@H]1Cc1ccccc1", "note": "(relative stereo) [Example 181, trans-4-Acetylthio-5-benzyl-1-(4-phenoxybenzyl)pyrrolidin-2-one]", "IC50": 8}, {"molecule": "O=C1C[C@@H](S)[C@H](Cc2ccccc2)N1Cc1ccc(Oc2ccccc2)cc1", "note": "(relative stereo) [Example 182, trans-5-Benzyl-4-mercapto-1-(4-phenoxybenzyl)pyrrolidin-2-one]", "IC50": 20}, {"molecule": "CCCNC(=O)OC[C@H]1[C@H](SC(C)=O)CC(=O)N1Cc1ccc(Oc2ccccc2)cc1", "note": "(relative stereo) [Example 183, trans-4-Acetylthio-5-propylaminocarbonyloxymethyl-1-(4-phenoxybenzyl)pyrrolidin-2-one]", "IC50": 20}, {"molecule": "CCCNC(=O)OC[C@H]1[C@H](S)CC(=O)N1Cc1ccc(Oc2ccccc2)cc1", "note": "(relative stereo) [Example 184, trans-4-Mercapto-5-propylaminocarbonyloxymethyl-1-(4-phenoxybenzyl)pyrrolidin-2-one]", "IC50": 2.3}, {"molecule": "CC(=O)S[C@@H]1CC(=O)N(Cc2ccc(Oc3ccccc3)cc2)[C@H]1COC1CCCCO1", "note": "(relative stereo) [Example 185, trans-4-Acetylthio-5-(tetrahydro-2H-pyran-2-yl)oxymethyl-1-(4-phenoxybenzyl)pyrrolidin-2-one]", "IC50": 6}, {"molecule": "CCOC(=O)CNC(=O)[C@H]1[C@H](SC(C)=O)CC(=O)N1Cc1ccc(Oc2ccccc2)cc1", "note": "(relative stereo) [Example 186, trans-4-Acetylthio-5-ethoxycarbonylmethylaminocarbonyl-1-(4-phenoxybenzyl)pyrrolidin-2-one]", "IC50": 50}, {"molecule": "CC(=O)S[C@@H]1CC(=O)N(Cc2ccc(Oc3ccccc3)cc2)[C@H]1C(=O)NCCO", "note": "(relative stereo) [Example 189, trans-4-Acetylthio-5-(2-hydroxyethyl)aminocarbonyl-1-(4-phenoxybenzyl)pyrrolidin-2-one]", "IC50": 89}, {"molecule": "O=C(NCCO)[C@H]1[C@H](S)CC(=O)N1Cc1ccc(Oc2ccccc2)cc1", "note": "(relative stereo) [Example 190, trans-5-(2-Hydroxyethyl)aminocarbonyl-4-mercapto-1-(4-phenoxybenzyl)pyrrolidin-2-one]", "IC50": 25}, {"molecule": "CC(=O)S[C@@H]1CC(=O)N(Cc2ccc(Oc3ccccc3)cc2)[C@H]1C(=O)NCc1ccncc1", "note": "(relative stereo) [Example 191, trans-4-Acetylthio-5-(4-pyridylmethyl)aminocarbonyl-1-(4-phenoxybenzyl)pyrrolidin-2-one]", "IC50": 120}, {"molecule": "O=C(NCc1ccncc1)[C@H]1[C@H](S)CC(=O)N1Cc1ccc(Oc2ccccc2)cc1", "note": "(relative stereo) [Example 192, trans-4-Mercapto-5-(4-pyridylmethyl)aminocarbonyl-1-(4-phenoxybenzyl)pyrrolidin-2-one]", "IC50": 19}, {"molecule": "CC(=O)SC1CC(=O)N(Cc2ccc(Oc3ccccc3)cc2)C1CO", "note": "(stereo not drawn) [Example 20, Trans-4-acetylthio-5-hydroxymethyl-1-(4-phenoxybenzyl)pyrrolidin-2-one]", "IC50": 10}]}, {"molecular_target": "T1, recombinant human MMP-13", "assay": "Assay of MMP-13 inhibiting activity (fluorogenic peptide substrate)", "format": "biochemical", "conditions": "Table 7; 37° C., 2 hours", "excerpt": "as §1, §2, §3, §4, §5", "units": {"IC50": "nM"}, "values": [{"molecule": "O=C1CC(SSC2CC(=O)N(Cc3ccc(Oc4ccccc4)cc3)C2=O)C(=O)N1Cc1ccc(Oc2ccccc2)cc1", "note": "(stereo not drawn) [Example 12]", "IC50": 9}, {"molecule": "O=C1CC(CSSCC2CC(=O)N(Cc3ccc(Oc4ccccc4)cc3)C2=O)C(=O)N1Cc1ccc(Oc2ccccc2)cc1", "note": "(stereo not drawn) [Example 13, 3,3′-[Dithiobis(methylene)]bis[1-(4-phenoxybenzyl)pyrrolidine-2,5-dione]]", "IC50": "> 10000"}, {"molecule": "O=C1CC(SC2CC(=O)N(Cc3ccc(Oc4ccccc4)cc3)C2=O)C(=O)N1Cc1ccc(Oc2ccccc2)cc1", "note": "(stereo not drawn) [Example 14]", "IC50": 100}, {"molecule": "O=C1CC(SSC2CC(=O)N(Cc3ccc(Oc4ccccc4)cc3)C2)CN1Cc1ccc(Oc2ccccc2)cc1", "note": "(stereo not drawn) [Example 19, 4,4′-Dithiobis[1-(4-phenoxybenzyl)pyrrolidin-2-one]]", "IC50": 200}, {"molecule": "O=C1C[C@H](SS[C@H]2CC(=O)N(Cc3ccc(Oc4ccccc4)cc3)C2)CN1Cc1ccc(Oc2ccccc2)cc1", "note": "[Example 23, (4S,4′S)-4,4′-Dithiobis[1-(4-phenoxybenzyl)pyrrolidin-2-one]]", "IC50": "> 10000"}, {"molecule": "O=C1C[C@@H](SS[C@@H]2CC(=O)N(Cc3ccc(Oc4ccccc4)cc3)C2)CN1Cc1ccc(Oc2ccccc2)cc1", "note": "[Example 26, (4R,4′R)-4,4′-Dithiobis[1-(4-phenoxybenzyl)pyrrolidin-2-one]]", "IC50": 70}]}, {"molecular_target": "T1, recombinant human MMP-13", "assay": "Assay of MMP-13 inhibiting activity (fluorogenic peptide substrate)", "format": "biochemical", "conditions": "Table 8; 37° C., 2 hours", "excerpt": "as §1, §2, §3, §4, §5", "units": {"IC50": "nM"}, "values": [{"molecule": "CC(=O)SC1CCN(Cc2ccc(Oc3ccccc3)cc2)C1=O", "note": "(stereo not drawn) [Example 27, 3-Acetylthio-1-(4-phenoxybenzyl)pyrrolidin-2-one]", "IC50": "> 10000"}]}, {"molecular_target": "T1, recombinant human MMP-13", "assay": "Assay of MMP-13 inhibiting activity (fluorogenic peptide substrate)", "format": "biochemical", "conditions": "Table 9; 37° C., 2 hours", "excerpt": "as §1, §2, §3, §4, §5", "units": {"IC50": "nM"}, "values": [{"molecule": "4-Acetylthio-1-[4-(2′-fluorophenoxy)benzyl]pyrrolidin-2-one [Example 112]", "IC50": 20}]}]}
